Legend:
Type in all cases: in vivo
Kochia (Kochia scoparia) [1] = experiment: Test A preemergence; conditions: Bassia scoparia, pre-emergence, 240 h, preemergence, 0 to 100 scale where 0 is no effect and 100 is complete control, read-out: Kochia plant response rating
In short: (§1)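 Ratings of 0 (no effect) to 100 (complete control) come from visual comparison with untreated controls roughly 10 d after treatment. Test chemicals, formulated in a non-phytotoxic solvent mixture with surfactant, were applied either as a preemergence directed soil spray on seeded soil or postemergence to one- to two-leaf plants 2 to 10 cm tall.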

[2] = test system: barnyardgrass (Echinochloa crus-galli); experiment: Test A preemergence; conditions: Echinochloa crus-galli, pre-emergence, 240 h, preemergence, 0 to 100 scale where 0 is no effect and 100 is complete control, read-out: Barnyardgrass plant response rating
In short: as §1

[3] = test system: giant foxtail (Setaria faberii); experiment: Test A preemergence; conditions: Setaria faberi, pre-emergence, 240 h, preemergence, 0 to 100 scale where 0 is no effect and 100 is complete control, read-out: Foxtail, Giant plant response rating
In short: as §1

[4] = test system: pigweed (Amaranthus retroflexus); experiment: Test A preemergence; conditions: Amaranthus retroflexus, pre-emergence, 240 h, preemergence, 0 to 100 scale where 0 is no effect and 100 is complete control, read-out: Pigweed plant response rating
[5] = test system: ragweed (common ragweed, Ambrosia elatior); experiment: Test A preemergence; conditions: Ambrosia artemisiifolia, pre-emergence, 240 h, preemergence, 0 to 100 scale where 0 is no effect and 100 is complete control, read-out: Ragweed plant response rating
In short: as §1

[6] = test system: ryegrass, Italian (Italian ryegrass, Lolium multiflorum); experiment: Test A preemergence; conditions: Lolium multiflorum, pre-emergence, 240 h, preemergence, 0 to 100 scale where 0 is no effect and 100 is complete control, read-out: Ryegrass, Italian plant response rating
In short: as §1

[7] = test system: Galium (catchweed bedstraw, Galium aparine); experiment: Test A postemergence; conditions: Galium, post-emergence, 240 h, postemergence
In short: as §1

Kochia (Kochia scoparia) [8] = experiment: Test A postemergence; conditions: Bassia scoparia, post-emergence, 240 h, postemergence
In short: as §1

[9] = test system: barnyardgrass (Echinochloa crus-galli); experiment: Test A postemergence; conditions: Echinochloa crus-galli, post-emergence, 240 h, postemergence
In short: as §1

[10] = test system: blackgrass (Alopecurus myosuroides); experiment: Test A postemergence; conditions: Alopecurus myosuroides, post-emergence, 240 h, postemergence
In short: as §1

corn (Zea mays) = experiment: Test A postemergence; conditions: Zea mays, post-emergence, 240 h, postemergence
In short: as §1

[11] = test system: giant foxtail (Setaria faberii); experiment: Test A postemergence; conditions: Setaria faberi, post-emergence, 240 h, postemergence
In short: as §1

[12] = test system: pigweed (Amaranthus retroflexus); experiment: Test A postemergence; conditions: Amaranthus retroflexus, post-emergence, 240 h, postemergence
In short: as §1

[13] = test system: ragweed (common ragweed, Ambrosia elatior); experiment: Test A postemergence; conditions: Ambrosia artemisiifolia, post-emergence, 240 h, postemergence
In short: as §1

[14] = test system: ryegrass, Italian (Italian ryegrass, Lolium multiflorum); experiment: Test A postemergence; conditions: Lolium multiflorum, post-emergence, 240 h, postemergence
In short: as §1

[15] = test system: wheat (Triticum aestivum); experiment: Test A postemergence; conditions: Triticum aestivum, post-emergence, 240 h, postemergence
In short: as §1

[16] = 125 g ai/ha, visual injury rating, approximately 10 d

How did the pest or weed control at 125 g/ha (Kochia (Kochia scoparia) [1]; [16]) turn out when Cc1cc([C@H]2CN(C)C(=O)[C@@H]2C(=O)Nc2ccccc2F)no1 [Compound 1194] was run?
Its pest or weed control at 125 g/ha is 0%.

And the pest or weed control at 500 g/ha (Kochia (Kochia scoparia) [1]; 500 g ai/ha)?
The pest or weed control at 500 g/ha was 0%.

And the pest or weed control at 125 g/ha [2, 16]?
Its pest or weed control at 125 g/ha is 0%.

What about the pest or weed control at 500 g/ha ([2]; 500 g ai/ha) of the same compound?
The pest or weed control at 500 g/ha was 30%.

And the pest or weed control at 125 g/ha [3, 16]?
Its pest or weed control at 125 g/ha is 0%.

And the pest or weed control at 500 g/ha ([3]; 500 g ai/ha)?
The pest or weed control at 500 g/ha was 20%.

What about the pest or weed control at 125 g/ha [4, 16] of the same compound?
The pest or weed control at 125 g/ha was 0%.

What about the pest or weed control at 500 g/ha ([4]; 500 g ai/ha) of the same compound?
The pest or weed control at 500 g/ha was 0%.

And the pest or weed control at 125 g/ha [5, 16]?
The pest or weed control at 125 g/ha was 0%.

And the pest or weed control at 500 g/ha ([5]; 500 g ai/ha)?
The pest or weed control at 500 g/ha was 0%.

What about the pest or weed control at 125 g/ha [6, 16] of the same compound?
The pest or weed control at 125 g/ha was 0%.

What about the pest or weed control at 500 g/ha ([6]; 500 g ai/ha) of the same compound?
Its pest or weed control at 500 g/ha is 0%.

What about the pest or weed control at 125 g/ha ([7]; 125 g ai/ha, visual injury vs untreated controls after approx. 10 d, 0 = no effect, 100 = complete control, read-out: Galium plant response rating (0 to 100 scale)) of the same compound?
The pest or weed control at 125 g/ha was 0%.

And the pest or weed control at 500 g/ha ([7]; 500 g ai/ha, 0 to 100 scale, 0 is no effect, 100 is complete control, read-out: Galium plant response rating)?
Its pest or weed control at 500 g/ha is 0%.

What about the pest or weed control at 125 g/ha (Kochia (Kochia scoparia) [8]; 125 g ai/ha, visual injury vs untreated controls after approx. 10 d, 0 = no effect, 100 = complete control, read-out: Kochia plant response rating (0 to 100 scale)) of the same compound?
The pest or weed control at 125 g/ha was 0%.

And the pest or weed control at 500 g/ha (Kochia (Kochia scoparia) [8]; 500 g ai/ha, 0 to 100 scale, 0 is no effect, 100 is complete control, read-out: Kochia plant response rating)?
Its pest or weed control at 500 g/ha is 0%.

And the pest or weed control at 125 g/ha ([9]; 125 g ai/ha, visual injury vs untreated controls after approx. 10 d, 0 = no effect, 100 = complete control, read-out: Barnyardgrass plant response rating (0 to 100 scale))?
The pest or weed control at 125 g/ha was 0%.

And the pest or weed control at 500 g/ha ([9]; 500 g ai/ha, 0 to 100 scale, 0 is no effect, 100 is complete control, read-out: Barnyardgrass plant response rating)?
The pest or weed control at 500 g/ha was 20%.

And the pest or weed control at 125 g/ha ([10]; 125 g ai/ha, visual injury vs untreated controls after approx. 10 d, 0 = no effect, 100 = complete control, read-out: Blackgrass plant response rating (0 to 100 scale))?
The pest or weed control at 125 g/ha was 0%.

And the pest or weed control at 500 g/ha ([10]; 500 g ai/ha, 0 to 100 scale, 0 is no effect, 100 is complete control, read-out: Blackgrass plant response rating)?
The pest or weed control at 500 g/ha was 0%.

And the plant injury at 125 g/ha (corn (Zea mays); 125 g ai/ha, visual injury vs untreated controls after approx. 10 d, 0 = no effect, 100 = complete control, read-out: Corn plant response rating (0 to 100 scale))?
The plant injury at 125 g/ha was 0%.

What about the plant injury at 500 g/ha (corn (Zea mays); 500 g ai/ha, 0 to 100 scale, 0 is no effect, 100 is complete control, read-out: Corn plant response rating) of the same compound?
The plant injury at 500 g/ha was 0%.

And the pest or weed control at 125 g/ha ([11]; 125 g ai/ha, visual injury vs untreated controls after approx. 10 d, 0 = no effect, 100 = complete control, read-out: Foxtail, Giant plant response rating (0 to 100 scale))?
Its pest or weed control at 125 g/ha is 0%.

What about the pest or weed control at 500 g/ha ([11]; 500 g ai/ha, 0 to 100 scale, 0 is no effect, 100 is complete control, read-out: Foxtail, Giant plant response rating) of the same compound?
The pest or weed control at 500 g/ha was 20%.

What about the pest or weed control at 125 g/ha ([12]; 125 g ai/ha, visual injury vs untreated controls after approx. 10 d, 0 = no effect, 100 = complete control, read-out: Pigweed plant response rating (0 to 100 scale)) of the same compound?
The pest or weed control at 125 g/ha was 0%.

What about the pest or weed control at 500 g/ha ([12]; 500 g ai/ha, 0 to 100 scale, 0 is no effect, 100 is complete control, read-out: Pigweed plant response rating) of the same compound?
Its pest or weed control at 500 g/ha is 0%.

What about the pest or weed control at 125 g/ha ([13]; 125 g ai/ha, visual injury vs untreated controls after approx. 10 d, 0 = no effect, 100 = complete control, read-out: Ragweed plant response rating (0 to 100 scale)) of the same compound?
The pest or weed control at 125 g/ha was 0%.

What about the pest or weed control at 500 g/ha ([13]; 500 g ai/ha, 0 to 100 scale, 0 is no effect, 100 is complete control, read-out: Ragweed plant response rating) of the same compound?
The pest or weed control at 500 g/ha was 0%.

What about the pest or weed control at 125 g/ha ([14]; 125 g ai/ha, visual injury vs untreated controls after approx. 10 d, 0 = no effect, 100 = complete control, read-out: Ryegrass, Italian plant response rating (0 to 100 scale)) of the same compound?
Its pest or weed control at 125 g/ha is 0%.

What about the pest or weed control at 500 g/ha ([14]; 500 g ai/ha, 0 to 100 scale, 0 is no effect, 100 is complete control, read-out: Ryegrass, Italian plant response rating) of the same compound?
The pest or weed control at 500 g/ha was 0%.

And the plant injury at 125 g/ha ([15]; 125 g ai/ha, visual injury vs untreated controls after approx. 10 d, 0 = no effect, 100 = complete control, read-out: Wheat plant response rating (0 to 100 scale))?
The plant injury at 125 g/ha was 0%.

What about the plant injury at 500 g/ha ([15]; 500 g ai/ha, 0 to 100 scale, 0 is no effect, 100 is complete control, read-out: Wheat plant response rating) of the same compound?
Its plant injury at 500 g/ha is 0%.

Reference: patent publication US12077503B2, “Substituted cyclic amides and their use as herbicides” (FMC CORPORATION, priority 2015, dated 2024)
